The record followed here is patent US12492188B2, “1H-benzo[D]imidazole derivatives as TLR9 inhibitors for the treatment of fibrosis” (BRISTOL-MYERS SQUIBB COMPANY, priority 2020, dated 2025).

Type in all cases: cell-based
Assay [1] deals with T1, human TLR9 (Homo sapiens, UniProt Q9NR96).
T1 construct: host or cells: HEK-Blue cells (HEK293-derived reporter line)
T1 sequence (Q9NR96 26-1032): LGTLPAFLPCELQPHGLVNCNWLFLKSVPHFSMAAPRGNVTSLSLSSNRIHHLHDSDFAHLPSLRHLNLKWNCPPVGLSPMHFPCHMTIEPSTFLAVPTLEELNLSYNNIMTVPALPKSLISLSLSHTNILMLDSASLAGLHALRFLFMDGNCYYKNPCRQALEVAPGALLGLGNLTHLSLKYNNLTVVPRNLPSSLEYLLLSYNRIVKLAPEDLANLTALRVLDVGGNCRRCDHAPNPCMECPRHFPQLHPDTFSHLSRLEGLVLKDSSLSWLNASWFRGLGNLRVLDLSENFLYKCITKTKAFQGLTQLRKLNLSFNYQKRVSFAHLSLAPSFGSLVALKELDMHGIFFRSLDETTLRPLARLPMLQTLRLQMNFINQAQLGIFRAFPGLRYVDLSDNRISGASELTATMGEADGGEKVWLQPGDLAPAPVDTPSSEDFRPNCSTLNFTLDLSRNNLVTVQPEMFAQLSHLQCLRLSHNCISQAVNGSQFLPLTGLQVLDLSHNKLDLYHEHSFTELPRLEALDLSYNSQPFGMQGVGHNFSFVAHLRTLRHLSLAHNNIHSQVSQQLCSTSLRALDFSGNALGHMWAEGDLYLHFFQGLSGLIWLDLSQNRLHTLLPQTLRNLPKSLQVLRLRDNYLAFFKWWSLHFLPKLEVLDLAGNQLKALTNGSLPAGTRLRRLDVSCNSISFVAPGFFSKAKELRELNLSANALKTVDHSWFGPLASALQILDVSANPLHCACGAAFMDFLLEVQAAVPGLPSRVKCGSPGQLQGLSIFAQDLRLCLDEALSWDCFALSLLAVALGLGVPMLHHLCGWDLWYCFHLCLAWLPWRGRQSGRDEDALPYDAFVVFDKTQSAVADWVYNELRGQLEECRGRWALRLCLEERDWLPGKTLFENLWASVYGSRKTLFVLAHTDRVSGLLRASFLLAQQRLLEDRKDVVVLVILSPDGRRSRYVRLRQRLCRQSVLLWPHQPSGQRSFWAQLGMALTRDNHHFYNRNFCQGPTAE
As to the kind of experiment: TLR9 inhibition reporter assay (HEK-Blue cells, secreted embryonic alkaline phosphatase reporter). In short, it runs like this:
(§1)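 Read-out is SEAP colour from HEK-Blue Detection medium after 22 h at 37 °C, converted to percent inhibition between agonist-plus-DMSO and reference-inhibitor wells. Receptor-overexpressing HEK-Blue cells received compound over 0.05 nM–50 μM for 30 min before agonist: gardiquimod 7.5 μM for TLR7, R848 15.9 μM for TLR8, ODN2006 5 nM for TLR9.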

Assay [2] addresses T2, human TLR7 (Homo sapiens, UniProt Q9NYK1).
T2 construct: host or cells: HEK-Blue cells (HEK293-derived reporter line)
T2 sequence (Q9NYK1 27-1049): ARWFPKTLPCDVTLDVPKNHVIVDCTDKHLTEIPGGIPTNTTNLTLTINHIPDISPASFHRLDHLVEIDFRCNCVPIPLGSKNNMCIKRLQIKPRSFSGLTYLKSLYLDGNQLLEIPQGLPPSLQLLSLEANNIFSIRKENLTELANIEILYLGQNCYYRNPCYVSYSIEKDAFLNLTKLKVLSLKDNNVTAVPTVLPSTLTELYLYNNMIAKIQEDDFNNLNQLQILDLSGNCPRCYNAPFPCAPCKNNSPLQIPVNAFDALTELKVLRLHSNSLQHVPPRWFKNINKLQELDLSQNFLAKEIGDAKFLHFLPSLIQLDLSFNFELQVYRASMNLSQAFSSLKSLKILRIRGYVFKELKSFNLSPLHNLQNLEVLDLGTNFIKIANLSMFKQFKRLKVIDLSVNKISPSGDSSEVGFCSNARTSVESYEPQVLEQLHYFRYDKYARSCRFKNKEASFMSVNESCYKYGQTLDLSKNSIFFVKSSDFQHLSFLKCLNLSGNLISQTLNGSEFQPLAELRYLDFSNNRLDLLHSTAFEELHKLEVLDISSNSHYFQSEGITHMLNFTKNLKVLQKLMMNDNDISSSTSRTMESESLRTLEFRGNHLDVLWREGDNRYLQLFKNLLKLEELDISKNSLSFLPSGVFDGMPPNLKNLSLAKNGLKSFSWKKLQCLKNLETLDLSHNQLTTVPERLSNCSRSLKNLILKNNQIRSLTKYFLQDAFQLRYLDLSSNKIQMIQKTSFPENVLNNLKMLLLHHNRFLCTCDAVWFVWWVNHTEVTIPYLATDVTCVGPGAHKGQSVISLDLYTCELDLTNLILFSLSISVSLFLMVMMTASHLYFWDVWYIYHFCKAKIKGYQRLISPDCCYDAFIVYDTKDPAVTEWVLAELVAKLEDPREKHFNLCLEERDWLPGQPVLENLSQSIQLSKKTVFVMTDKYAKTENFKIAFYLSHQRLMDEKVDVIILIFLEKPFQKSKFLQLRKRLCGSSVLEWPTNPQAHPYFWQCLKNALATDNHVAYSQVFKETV
As to the kind of experiment: TLR7 inhibition reporter assay (HEK-Blue cells, secreted embryonic alkaline phosphatase reporter). As to conditions: HEK-Blue cells overexpressing human TLR7, stimulated with gardiquimod 7.5 μM; read-out: TLR 7 IC50. Put shortly: as §1

The target of assay [3] is T3, human TLR8 (Homo sapiens, UniProt Q9NR97).
T3 construct: host or cells: HEK-Blue cells (HEK293-derived reporter line)
T3 sequence (Q9NR97 27-1041): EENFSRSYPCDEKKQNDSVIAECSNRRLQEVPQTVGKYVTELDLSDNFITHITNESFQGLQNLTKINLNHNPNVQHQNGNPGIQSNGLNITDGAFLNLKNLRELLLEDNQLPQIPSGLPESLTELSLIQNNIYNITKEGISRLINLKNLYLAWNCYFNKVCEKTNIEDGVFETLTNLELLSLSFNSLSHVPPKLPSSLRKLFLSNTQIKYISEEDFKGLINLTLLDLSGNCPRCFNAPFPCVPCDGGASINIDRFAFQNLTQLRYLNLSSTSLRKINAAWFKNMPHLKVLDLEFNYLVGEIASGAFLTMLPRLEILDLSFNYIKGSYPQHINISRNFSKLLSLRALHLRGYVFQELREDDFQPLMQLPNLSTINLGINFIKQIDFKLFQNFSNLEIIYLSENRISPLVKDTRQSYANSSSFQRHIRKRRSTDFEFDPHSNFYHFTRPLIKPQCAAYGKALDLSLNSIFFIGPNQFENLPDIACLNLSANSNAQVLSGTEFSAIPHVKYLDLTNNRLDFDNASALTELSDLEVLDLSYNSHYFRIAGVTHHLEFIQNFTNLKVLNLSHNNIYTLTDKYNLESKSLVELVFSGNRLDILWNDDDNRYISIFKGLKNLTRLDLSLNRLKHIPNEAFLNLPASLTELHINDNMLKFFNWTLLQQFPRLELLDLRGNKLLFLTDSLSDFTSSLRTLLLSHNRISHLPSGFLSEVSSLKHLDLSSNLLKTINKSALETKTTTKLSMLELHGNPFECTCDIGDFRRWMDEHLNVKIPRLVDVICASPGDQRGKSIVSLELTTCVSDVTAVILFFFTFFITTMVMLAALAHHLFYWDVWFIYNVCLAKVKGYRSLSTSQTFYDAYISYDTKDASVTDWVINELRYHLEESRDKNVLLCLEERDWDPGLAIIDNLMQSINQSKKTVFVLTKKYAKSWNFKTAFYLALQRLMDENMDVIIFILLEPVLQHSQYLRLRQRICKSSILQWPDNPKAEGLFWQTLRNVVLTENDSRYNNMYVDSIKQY
Put plainly: TLR8 inhibition reporter assay (HEK-Blue cells, secreted embryonic alkaline phosphatase reporter). As to conditions: HEK-Blue cells overexpressing human TLR8, stimulated with R848 15.9 μM; read-out: TLR 8 IC50. Put shortly:
as §1

Setting [4] is: HEK-Blue cells overexpressing human TLR9, stimulated with ODN2006 5 nM, read-out: TLR 9 IC50.

Like-named read-outs stand apart in the source and are kept apart here. Bounds are passed on as bounds.

As for `Cn1c(-c2ccc(S(C)(=O)=O)cc2)nc2c(F)c(C3CCN(C4CC5CCC(C4)N5C4CCOCC4)CC3)ccc21` (stereo not shown) [Example 197, 4-fluoro-1-methyl-2-(4-(methylsulfonyl)phenyl)-5-(1-(8-(tetrahydro-2H-pyran-4-yl)-8-azabicyclo[3.2.1]octan-3-yl)piperidin-4-yl)-1H-benzo[d]imidazole], the IC50 was 160 nM in assay [1], 155 nM in assay [1] (setting [4]), above 50000 nM in assay [2] and above 50000 nM in assay [3].
Regarding `Cn1c(-c2ccc(S(C)(=O)=O)cc2)nc2c(F)c(C3CCN(C4CC5CCC(C4)N5C4CCOCC4)CC3)ccc21` (stereo not shown) [Example 198, 4-fluoro-1-methyl-2-(4-(methylsulfonyl)phenyl)-5-(1-(8-(tetrahydro-2H-pyran-4-yl)-8-azabicyclo[3.2.1]octan-3-yl)piperidin-4-yl)-1H-benzo[d]imidazole], the IC50 in assay [1] was 57 nM; in assay [1] (setting [4]), 57 nM; in assay [2], above 50000 nM; in assay [3] it was above 50000 nM.
Turning to `CC(C)CN1CCC(N2CCC(c3cc(F)c4c(c3)nc(-c3ccc(S(C)(=O)=O)cc3)n4C)CC2)CC1` [Example 201, 7-fluoro-5-(1′-isobutyl-[1,4′-bipiperidin]-4-yl)-1-methyl-2-(4-(methylsulfonyl)phenyl)-1H-benzo[d]imidazole], the IC50 is 97 nM in assay [1], 97 nM in assay [1] (setting [4]), 14400 nM in assay [2] and above 50000 nM in assay [3].
Take `Cn1c(-c2ccc(S(C)(=O)=O)cc2)nc2cc(C3CCN(C4CCN(C5CC5)CC4)CC3)cc(F)c21` [Example 202, 5-(1′-cyclopropyl-[1,4′-bipiperidin]-4-yl)-7-fluoro-1-methyl-2-(4-(methylsulfonyl)phenyl)-1H-benzo[d]imidazole]: the IC50 was 500 nM in assay [1], 502 nM in assay [1] (setting [4]), above 50000 nM in assay [2] and above 50000 nM in assay [3].
With `Cn1c(-c2ccc(S(C)(=O)=O)cc2)nc2cc(C3CCN(C4CCN(CC5CC5)CC4)CC3)cc(F)c21` [Example 203, 5-(1′-(cyclopropylmethyl)-[1,4′-bipiperidin]-4-yl)-7-fluoro-1-methyl-2-(4-(methylsulfonyl)phenyl)-1H-benzo[d]imidazole], the IC50 in assay [1] was 110 nM; in assay [1] (setting [4]) it was 108 nM; in assay [2], 15400 nM; in assay [3] it was above 50000 nM.
For `Cn1c(-c2ccc(S(C)(=O)=O)cc2)nc2cc(C3CCN(C4CCN(CC5COC5)CC4)CC3)cc(F)c21` [Example 204, 7-fluoro-1-methyl-2-(4-(methylsulfonyl)phenyl)-5-(1′-(oxetan-3-ylmethyl)-[1,4′-bipiperidin]-4-yl)-1H-benzo[d]imidazole], the IC50 in assay [1] was 780 nM; in assay [1] (setting [4]) it was 781 nM; in assay [2], above 50000 nM; in assay [3] it was above 50000 nM.
As for `Cn1c(-c2ccc(S(C)(=O)=O)cc2)nc2cc(C3CCN(C4CCN(C5CCC5)CC4)CC3)cc(F)c21` [Example 205, 5-(1′-cyclobutyl-[1,4′-bipiperidin]-4-yl)-7-fluoro-1-methyl-2-(4-(methylsulfonyl)phenyl)-1H-benzo[d]imidazole], the concentration for half-maximal inhibition (IC50) in assay [1] is 110 nM; in assay [1] (setting [4]), 114 nM; in assay [2], 21300 nM; in assay [3], above 50000 nM.
With `Cn1c(-c2ccc(S(C)(=O)=O)cc2)nc2cc(C3CCN(C4CCN(C5COC5)CC4)CC3)cc(F)c21` [Example 206, 7-fluoro-1-methyl-2-(4-(methylsulfonyl)phenyl)-5-(1′-(oxetan-3-yl)-[1,4′-bipiperidin]-4-yl)-1H-benzo[d]imidazole], the IC50 was 840 nM in assay [1], 840 nM in assay [1] (setting [4]), above 50000 nM in assay [2] and above 50000 nM in assay [3].
Turning to `Cn1c(-c2ccc(S(C)(=O)=O)cc2)nc2cc(C3CCN(C4CCN(C5CCOCC5)CC4)CC3)cc(F)c21` [Example 207, 7-fluoro-1-methyl-2-(4-(methylsulfonyl)phenyl)-5-(1′-(tetrahydro-2H-pyran-4-yl)-[1,4′-bipiperidin]-4-yl)-1H-benzo[d]imidazole], the IC50 in assay [1] was 110 nM; in assay [1] (setting [4]), 110 nM; in assay [2] it was 18300 nM; in assay [3] it was above 50000 nM.
For `COCCN1CCC(N2CCC(c3cc(F)c4c(c3)nc(-c3ccc(S(C)(=O)=O)cc3)n4C)CC2)CC1` [Example 208, 7-fluoro-5-(1′-(2-methoxyethyl)-[1,4′-bipiperidin]-4-yl)-1-methyl-2-(4-(methylsulfonyl)phenyl)-1H-benzo[d]imidazole], the IC50 was 940 nM in assay [1], 937 nM in assay [1] (setting [4]), above 50000 nM in assay [2] and above 50000 nM in assay [3].
